PubChem BioAssay (NCI)
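Step 1: Grow cells in 96-well plates. Step 2: Expose to compound for 48 hours at 5 concentrations. Step 3: Interpolate endpoints linearly; if unreached, use highest concentration. At the TGI there is no net growth.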

Tests used:
Assay in all cases: growth of human tumour cells (NCI), 48 h
CAKI-1 renal = test system: CAKI-1 renal
COLO 205 colon = test system: COLO 205 colon
HCC-2998 colon = test system: HCC-2998 colon
HCT-116 colon = test system: HCT-116 colon
HL-60(TB) leukemia = test system: HL-60(TB) leukemia
M14 melanoma = test system: M14 melanoma
MDA-MB-435 = test system: MDA-MB-435
NCI-H226 lung = test system: NCI-H226 lung
NCI-H23 lung = test system: NCI-H23 lung
NCI/ADR-RES ovarian = test system: NCI/ADR-RES ovarian
OVCAR-3 ovarian = test system: OVCAR-3 ovarian
PC-3 prostate = test system: PC-3 prostate
RXF 393 renal = test system: RXF 393 renal
SF-295 CNS = test system: SF-295 CNS
SF-539 CNS = test system: SF-539 CNS
SK-MEL-2 melanoma = test system: SK-MEL-2 melanoma
SK-MEL-28 melanoma = test system: SK-MEL-28 melanoma
SR leukemia = test system: SR leukemia
T-47D breast = test system: T-47D breast
SNB-19 CNS = test system: SNB-19 CNS

Structure (SMILES)	TGI (CAKI-1 renal) [µM]	TGI (COLO 205 colon) [µM]	TGI (HCC-2998 colon) [µM]	TGI (HCT-116 colon) [µM]	TGI (HL-60(TB) leukemia) [µM]	TGI (M14 melanoma) [µM]	TGI (MDA-MB-435) [µM]	TGI (NCI-H226 lung) [µM]	TGI (NCI-H23 lung) [µM]	TGI (NCI/ADR-RES ovarian) [µM]	TGI (OVCAR-3 ovarian) [µM]	TGI (PC-3 prostate) [µM]	TGI (RXF 393 renal) [µM]	TGI (SF-295 CNS) [µM]	TGI (SF-539 CNS) [µM]	TGI (SK-MEL-2 melanoma) [µM]	TGI (SK-MEL-28 melanoma) [µM]	TGI (SR leukemia) [µM]	TGI (T-47D breast) [µM]	TGI (SNB-19 CNS) [µM]
O=c1c2ncn(C3CCCO3)c2n(-c2ccccc2)c(=S)n1-c1ccccc1 (stereo unspecified)	> 100	> 100	> 100	> 100	> 100	> 100	> 100	> 100	> 100	> 100	> 100	> 100	> 100	> 100	> 100	> 100	> 100	> 100	> 100	–
CC(=O)O[C@H]1CC[C@@]2(C)C(=CC[C@H]3[C@@H]4C/C(=C\c5ccc(N(C)C)cc5)[C@H](OC(C)=O)[C@@]4(C)CC[C@@H]32)C1	–	29.4	–	25.3	41.2	36	–	33.4	30.9	35.4	41.8	16.7	42.7	21	27.9	22.5	32.8	> 100	76.8	27.3
CCC(=O)O[C@H]1CC[C@H]2[C@@H]3CCC4=C/C(=N/OC(=O)c5cccc6cc7ccccc7nc56)CC[C@]4(C)[C@H]3CC[C@]12C	> 100	> 100	> 100	> 100	> 100	> 100	> 100	> 100	> 100	> 100	> 100	> 100	> 100	–	> 100	> 100	> 100	> 100	67.6	> 100
O=C(CC(C(=O)c1ccsc1)c1ccccc1)c1ccccc1 (stereo unspecified)	> 100	> 100	> 100	> 100	23	> 100	> 100	> 100	36.1	> 100	> 100	–	> 100	> 100	> 100	–	> 100	> 100	> 100	–
CC1CN=C(N(C(=O)Nc2ccccc2)c2ccc(Cl)c(Cl)c2)S1 (stereo unspecified)	> 100	> 10	69.9	> 100	> 100	> 100	–	–	> 100	> 100	> 10	> 100	–	> 100	> 100	40.4	> 100	> 100	> 100	> 100
COC(=O)C1=C(O)c2ccc(Cl)cc2S(=O)(=O)N1C	> 100	> 100	> 100	> 100	> 100	> 100	> 100	–	> 100	95	–	> 100	> 100	> 100	–	> 100	> 100	> 100	> 100	> 100
CC(=O)N(C)CCc1c[nH]c2ccccc12	> 100	> 100	–	> 100	> 100	> 100	> 100	> 100	> 100	> 100	> 100	> 100	–	> 100	> 100	> 100	> 100	> 100	> 100	> 100
CCOc1nnnc2nc[nH]c12	> 100	> 100	> 100	> 100	> 100	> 100	> 100	> 100	> 100	> 100	> 100	> 100	> 100	> 100	> 100	> 100	> 100	–	> 100	–
CCOC(=O)Cc1ccc(Nc2nc3ccccc3nc2C(=O)OCC)cc1	> 100	> 100	–	> 100	> 100	> 100	> 100	> 100	> 100	> 100	> 100	> 100	74.4	> 100	> 100	> 100	> 100	> 100	> 100	41
O=C1C=C(NCCOCCO)C(=O)c2c(O)ccc(O)c21	> 100	32.7	43.6	55	40.4	66.9	32.6	> 100	47.9	65.7	65.4	> 100	> 100	> 100	54.6	51.9	> 100	–	59.8	> 100
Nc1ccn([C@H]2CO[C@@H](CO)[C@@H]2O)c(=O)n1	> 100	> 100	> 100	> 100	–	–	> 100	> 100	> 100	> 100	> 100	> 100	> 100	> 100	> 100	> 100	> 100	> 100	> 100	–
Cn1c2ccccc2c(=O)c2cccc(C(=O)NC(CS)C(=O)O)c21 (stereo unspecified)	> 100	> 100	> 100	> 100	38.9	> 100	> 100	> 100	> 100	> 100	> 100	> 100	–	> 100	> 100	> 100	> 100	> 100	> 100	> 100
